Tests used:
Format in all cases: in vivo
[1] = system: Abutilon theophrasti (ABUTH); assay: Post-emergence herbicidal action, greenhouse pot trial; details: visual rating after about 3 weeks; for pest or weed control at 320 g/ha / pest or weed control at 80 g/ha: Abutilon theophrasti, 504 h; for pest or weed control at 320 g/ha: read-out: Post-emergence effect at 320 g/ha against ABUTH in %; for pest or weed control at 80 g/ha: read-out: Post-emergence effect at 80 g/ha against ABUTH in %
Method in brief: (§1)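 Greenhouse-grown plants, sown in sandy loam, sprayed at the one-leaf stage (2–3 weeks after sowing) with WP or EC formulations in water plus 0.5% additive, 600 l/ha. Rates of 320 g/ha or lower. Visual rating after about 3 weeks versus untreated controls (100% = dead, 0% = as control).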

[2] = system: Alopecurus myosuroides (ALOMY); assay: as above; details: 320 g/ha, visual rating after about 3 weeks
Method in brief: as §1

[3] = system: Amaranthus retroflexus (AMARE); assay: as above; details: visual rating after about 3 weeks; for pest or weed control at 80 g/ha / pest or weed control at 320 g/ha: Amaranthus retroflexus, 504 h; for pest or weed control at 80 g/ha: read-out: Post-emergence effect at 80 g/ha against AMARE in %; for pest or weed control at 320 g/ha: read-out: Post-emergence effect at 320 g/ha against AMARE in %
Method in brief: as §1

Avena fatua (AVEFA) = assay: as above; details: 320 g/ha, visual rating after about 3 weeks; for pest or weed control at 320 g/ha: Avena fatua, 504 h, read-out: Post-emergence effect at 320 g/ha against AVEFA in %
Method in brief: as §1

Bassia scoparia (KCHSC) = assay: as above
Method in brief: as §1

[4] = system: Digitaria sanguinalis (DIGSA); assay: as above; details: visual rating after about 3 weeks; for pest or weed control at 320 g/ha: Digitaria sanguinalis, 504 h, read-out: Post-emergence effect at 320 g/ha against DIGSA in %
Method in brief: as §1

[5] = system: Echinochloa crus-galli (ECHCG); assay: as above; details: visual rating after about 3 weeks; for pest or weed control at 320 g/ha: read-out: Post-emergence effect at 320 g/ha against ECHCG in %
Method in brief: as §1

Lolium rigidum (LOLRI) = assay: as above; details: 320 g/ha, visual rating after about 3 weeks; for pest or weed control at 320 g/ha: Lolium rigidum, 504 h, read-out: Post-emergence effect at 320 g/ha against LOLRI in %
Method in brief: as §1

[6] = system: Matricaria inodora (MATIN); assay: as above; details: visual rating after about 3 weeks; for pest or weed control at 80 g/ha / pest or weed control at 320 g/ha: Tripleurospermum inodorum, 504 h; for pest or weed control at 80 g/ha: read-out: Post-emergence effect at 80 g/ha against MATIN in %; for pest or weed control at 320 g/ha: read-out: Post-emergence effect at 320 g/ha against MATIN in %
Method in brief: as §1

[7] = system: Polygonum convolvulus (POLCO); assay: as above; details: visual rating after about 3 weeks; for pest or weed control at 80 g/ha / pest or weed control at 320 g/ha: Fallopia convolvulus, 504 h; for pest or weed control at 80 g/ha: read-out: Post-emergence effect at 80 g/ha against POLCO in %; for pest or weed control at 320 g/ha: read-out: Post-emergence effect at 320 g/ha against POLCO in %
Method in brief: as §1

Setaria viridis (SETVI) = assay: as above; details: visual rating after about 3 weeks; for pest or weed control at 320 g/ha: Setaria viridis, 504 h, read-out: Post-emergence effect at 320 g/ha against SETVI in %
Method in brief: as §1

[8] = system: Triticum aestivum (TRZAS); assay: Post-emergence crop plant compatibility, greenhouse pot trial; details: for Post-emergence effect at 320 g/ha against TRZAS in %: in vivo
Experimental: Seeds of monocotyledonous and dicotyledonous weeds and crop plants are placed in sandy loam in plastic or organic planting pots, covered with soil and cultivated in a greenhouse under controlled growth conditions. 2 to 3 weeks after sowing, the trial plants are treated at the one-leaf stage. The compounds of the invention, formulated in the form of wettable powders (WP) or as emulsion concentrates (EC), are then sprayed onto the green parts of the plants as aqueous suspension or emulsion with addition of 0.5% additive at a water application rate equivalent to 600 l/ha. After about 3 weeks of keeping the trial plants in the greenhouse under optimum growth conditions, the effect of the preparations is rated visually in comparison to untreated controls. For example, 100% activity=the plants have died, 0% activity=like control plants.
The observed effects on selected crop plants are reported here in comparison to the untreated controls (values in %). The appendices “a”, “b” and “c” give differentiation by dosage used with otherwise the same useful plants tested.
As shown by results from Tables B1 to B19, inventive compounds of the general formula (I) in the case of post-emergence treatment have good herbicidal efficacy against harmful plants, for example Abutilon theophrasti (ABUTH), Alopecurus myosuroides (ALOMY), Amaranthus retroflexus (AMARE), Avena fatua (AVEFA), Digitaria sanguinalis (DIGSA), Echinochloa crus-galli (ECHCG), Bassia scoparia (KCHSC), Lolium rigidum (LOLRI), Matricaria inodora (MATIN), Pharbitis purpurea (PHBPU), Polygonum convolvulus (POLCO), Setaria viridis (SETVI), Veronica persica (VERPE) and Viola tricolor (VIOTR) at an application rate of 320 g of active substance or less per hectare, and good crop plant compatibility in the case of organisms such as Oryza sativa (ORYSA), Zea mays (ZEAMX), Brassica napus (BRSNW), Glycine max (GLXMA) and Triticum aestivum (TRZAS) at an application rate of 320 g or less per hectare.

[9] = system: Pharbitis purpurea (PHBPU); assay: Post-emergence herbicidal action, greenhouse pot trial; details: Ipomoea purpurea, 504 h, visual rating after about 3 weeks; for pest or weed control at 320 g/ha: read-out: Post-emergence effect at 320 g/ha against PHBPU in %; for pest or weed control at 80 g/ha: read-out: Post-emergence effect at 80 g/ha against PHBPU in %
Method in brief: as §1

Viola tricolor (VIOTR) = assay: as above; details: Viola tricolor, 504 h, read-out: Post-emergence effect against VIOTR
Method in brief: as §1

Veronica persica (VERPE) = assay: as above; details: visual rating after about 3 weeks; for pest or weed control at 320 g/ha: Veronica persica, 504 h, read-out: Post-emergence effect at 320 g/ha against VERPE in %
Method in brief: as §1

[10] = Echinochloa crus-galli, 504 h, 320 g/ha
[11] = Bassia scoparia, 504 h, 320 g/ha, read-out: Post-emergence effect against KCHSC

SMILES | pest or weed control at 320 g/ha ([1]; 320 g/ha) [%] | pest or weed control at 320 g/ha ([4]; 320 g/ha) [%] | pest or weed control at 320 g/ha [5, 10] [%] | pest or weed control at 80 g/ha ([6]; 80 g/ha) [%] | pest or weed control at 320 g/ha ([6]; 320 g/ha) [%] | pest or weed control at 320 g/ha [9] [%] | pest or weed control at 320 g/ha (Setaria viridis (SETVI); 320 g/ha) [%] | pest or weed control at 20 g/ha (Viola tricolor (VIOTR)) [%] | pest or weed control at 80 g/ha (Viola tricolor (VIOTR)) [%] | pest or weed control at 320 g/ha (Viola tricolor (VIOTR)) [%] | Post-emergence effect at 320 g/ha against TRZAS in % [8] [%] | pest or weed control at 80 g/ha ([3]; 80 g/ha) [%] | pest or weed control at 320 g/ha ([3]; 320 g/ha) [%] | pest or weed control at 80 g/ha ([7]; 80 g/ha) [%] | pest or weed control at 320 g/ha ([7]; 320 g/ha) [%] | pest or weed control at 320 g/ha (Veronica persica (VERPE)) [%] | other results
COC(=O)CCOC(=O)C(Oc1nn(-c2ncccc2F)c(-c2ccc(F)nc2)c1Br)SC (racemic) [Example I-32] |  |  |  |  |  |  |  |  |  |  |  |  |  |  |  |  | Post-emergence effect at 80 g/ha against ABUTH in % ([1]; 80 g/ha): 80%; Post-emergence effect at 320 g/ha against ABUTH in % ([1]; 320 g/ha): 90%; Post-emergence effect at 320 g/ha against ALOMY in % [2]: 90%; Post-emergence effect at 80 g/ha against AMARE in % ([3]; 80 g/ha): 80%; Post-emergence effect at 320 g/ha against AMARE in % ([3]; 320 g/ha): 80%; Post-emergence effect at 320 g/ha against AVEFA in % (Avena fatua (AVEFA)): 90%; Post-emergence effect against KCHSC (Bassia scoparia (KCHSC); 80 g/ha): 80%; Post-emergence effect against KCHSC (Bassia scoparia (KCHSC); 320 g/ha): 90%; Post-emergence effect at 80 g/ha against DIGSA in % [4]: 90%; Post-emergence effect at 320 g/ha against DIGSA in % ([4]; 320 g/ha): 90%; Post-emergence effect at 320 g/ha against ECHCG in % ([5]; 320 g/ha): 90%; Post-emergence effect at 320 g/ha against LOLRI in % (Lolium rigidum (LOLRI)): 80%; Post-emergence effect at 80 g/ha against MATIN in % ([6]; 80 g/ha): 80%; Post-emergence effect at 320 g/ha against MATIN in % ([6]; 320 g/ha): 80%; Post-emergence effect at 80 g/ha against POLCO in % ([7]; 80 g/ha): 80%; Post-emergence effect at 320 g/ha against POLCO in % ([7]; 320 g/ha): 90%; Post-emergence effect at 320 g/ha against SETVI in % (Setaria viridis (SETVI); 320 g/ha): 80%; Post-emergence effect against TRZAS (crop plant compatibility) ([8]; 20 g/ha, post-emergence, in comparison to untreated controls): 0%
CCOC(=O)C(Oc1nn(-c2cc(F)ccc2F)c(-c2cncc(F)c2)c1Br)SC (stereo not shown) [Example I-03, ethyl {[4-bromo-1-(2,5-difluorophenyl)-5-(5-fluoropyridin-3-yl)-1H-pyrazol-3-yl]oxy}(methylsulfanyl)acetate] | 80 | 80 | 90 | 80 | 90 | 80 | 90 | 80 | 90 | 90 | 20 |  |  |  |  |  | Post-emergence effect at 80 g/ha against SETVI in % (Setaria viridis (SETVI)): 80%
CSC(Oc1nn(-c2cc(F)ccc2F)c(-c2cncc(F)c2)c1Br)C(=O)O (stereo not shown) [Example I-06] |  | 80 | 90 |  | 90 | 80 |  |  | 80 | 90 | 20 |  |  |  |  |  | 
COC(=O)C(Oc1nn(-c2cc(F)ccc2F)c(-c2cncc(F)c2)c1C1CC1)SC (stereo not shown) [Example I-08] |  |  | 80 |  | 80 | 90 | 90 | 90 | 90 | 90 |  | 80 | 80 | 90 | 90 | 90 | pest or weed control at 80 g/ha [9]: 80%; Post-emergence effect at 80 g/ha against VERPE in % (Veronica persica (VERPE); 80 g/ha): 80%
CCOC(=O)C(Oc1nn(-c2ncccc2F)c(-c2ccccc2)c1Br)SC (stereo not shown) [Example I-11] | 80 |  | 80 |  | 80 |  |  |  |  |  | 0 | 80 | 90 | 80 | 80 |  | 
CCOC(=O)C(Oc1nn(-c2ncccc2F)c(-c2cncc(F)c2)c1Br)SC (stereo not shown) [Example I-39] | 90 | 90 | 90 | 80 | 90 | 90 | 90 | 80 | 80 | 90 |  | 80 | 90 | 80 | 80 | 80 | Post-emergence action at 20 g/ha against ABUTH in % ([1]; 20 g/ha): 80%; pest or weed control at 80 g/ha ([1]; 80 g/ha): 90%; Post-emergence effect at 20 g/ha against AMARE in % [3]: 80%; pest or weed control at 320 g/ha (Avena fatua (AVEFA)): 90%; Post-emergence effect at 20 g/ha against KCHSC in % (Bassia scoparia (KCHSC); 20 g/ha, visual rating after about 3 weeks): 80%; pest or weed control at 80 g/ha (Bassia scoparia (KCHSC); Bassia scoparia, 504 h, 80 g/ha, read-out: Post-emergence effect against KCHSC): 90%; pest or weed control at 320 g/ha (Bassia scoparia (KCHSC); [11]): 90%; Post-emergence effect at 80 g/ha against DIGSA in % [4]: 80%; pest or weed control at 80 g/ha ([5]; Echinochloa crus-galli, 504 h, 80 g/ha, read-out: Post-emergence effect at 80 g/ha against ECHCG in %): 90%; pest or weed control at 320 g/ha (Lolium rigidum (LOLRI)): 90%; pest or weed control at 80 g/ha [9]: 80%; Post-emergence effect at 80 g/ha against SETVI in % (Setaria viridis (SETVI)): 90%
CSC(Oc1nn(-c2ncccc2F)c(-c2cncc(F)c2)c1C1CC1)C(=O)O (stereo not shown) [Example I-44] | 90 |  | 90 | 80 | 90 |  | 80 | 90 | 90 | 90 |  | 90 | 90 |  | 80 | 90 | Post-emergence effect at 20 g/ha against AMARE in % [3]: 80%; pest or weed control at 320 g/ha (Avena fatua (AVEFA)): 90%; pest or weed control at 320 g/ha (Bassia scoparia (KCHSC); [11]): 90%
CCOC(=O)C(Oc1nn(-c2ccccc2F)c(-c2ccc(F)nc2)c1C(F)(F)F)SC (stereo not shown) [Example I-46] | 80 | 80 | 90 |  | 90 |  | 80 | 80 | 80 | 90 |  | 80 | 80 |  | 80 | 80 | pest or weed control at 80 g/ha ([1]; 80 g/ha): 80%; pest or weed control at 320 g/ha (Lolium rigidum (LOLRI)): 100%

— patent US20250026724A1, “(1,4,5-TRISUBSTITUTED 1H-PYRAZOL-3-YL)OXY-2-ALKYLTHIOALKYL ACIDS AND -ALKYL ACID DERIVATIVES, SALTS THEREOF AND USE THEREOF AS ACTIVE HERBICIDAL INGREDIENTS” (BAYER AKTIENGESELLSCHAFT, priority 2021, published 2025)
